Values of other authors in US20250120988A1, “SMALL MOLECULE COMPOUND FOR TREATING ISCHEMIC STROKE, ITS PREPARATION METHOD, AND APPLICATION” (SHANGHAI SIXTH PEOPLE'S HOSPITAL, priority 2023, published 2025).

Experiments:
NMDARs = conditions: competitive antagonist of NMDARs; read-out: half-blocking dose (IC50) on NMDARs; cited from earlier work
ischemic stroke patients = conditions: clinical trials; cited from earlier work
[1] = cited from earlier work

Q: Which IC50 (NMDARs) does the source give for O=C(O)[C@@H]1C[C@H](CP(=O)(O)O)CCN1 (racemic) [Selfotel] here?
A: < 1000 nM

Q: And the “patient mortality compared to the control group” value (ischemic stroke patients)?
A: did not significantly reduce patient mortality

Q: And the “psychiatric symptoms in patients” value (ischemic stroke patients)?
A: led to various psychiatric symptoms in patients

Q: And the solubility in water [1]?
A: highly soluble in water
